{
  "source": "ChEMBL document CHEMBL5257111",
  "about": "“Ribosome-targeting antibiotics and resistance via ribosomal RNA methylation” (RSC Med Chem, 2023)",
  "key": {"[1]": {"experiment": "Binding affinity to Enterococcus faecalis ErmAM methyltransferase assessed as inhibition constant"}, "[2]": {"target": "T1, Catechol O-methyltransferase (Homo sapiens, UniProt P21964)", "T1 sequence (P21964 whole entry)": "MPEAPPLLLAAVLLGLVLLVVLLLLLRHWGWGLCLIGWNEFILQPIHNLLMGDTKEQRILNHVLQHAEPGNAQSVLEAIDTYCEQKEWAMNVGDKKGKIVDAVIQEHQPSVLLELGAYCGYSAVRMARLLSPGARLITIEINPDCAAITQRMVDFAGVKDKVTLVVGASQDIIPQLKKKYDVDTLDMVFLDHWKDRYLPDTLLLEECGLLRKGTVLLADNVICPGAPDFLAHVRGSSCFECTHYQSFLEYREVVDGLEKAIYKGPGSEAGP", "experiment": "Inhibition of S-COMT (unknown origin)"}, "[3]": {"target": "rRNA adenine N-6-methyltransferase (Bacillus subtilis, UniProt P13956)", "sequence (P13956 whole entry)": "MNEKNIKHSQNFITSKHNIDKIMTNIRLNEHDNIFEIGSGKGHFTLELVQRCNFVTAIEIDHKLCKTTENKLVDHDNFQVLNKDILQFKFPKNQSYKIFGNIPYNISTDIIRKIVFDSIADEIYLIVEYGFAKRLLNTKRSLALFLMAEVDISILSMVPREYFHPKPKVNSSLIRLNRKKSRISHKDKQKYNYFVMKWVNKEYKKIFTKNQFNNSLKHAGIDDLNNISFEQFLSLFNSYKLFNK", "experiment": "Inhibition of Bacillus subtilis ErmC' methyltransferase"}, "Acinetobacter baumannii": {"tested_on": "Acinetobacter baumannii", "experiment": "Antibacterial activity against Acinetobacter baumannii assessed as reduction in bacterial growth by broth microdilution method", "format": "functional"}, "Enterobacter cloacae": {"tested_on": "Enterobacter cloacae", "experiment": "Antibacterial activity against Enterobacter cloacae ATCC 29893 assessed as reduction in microbial growth", "format": "functional"}, "Klebsiella pneumoniae": {"tested_on": "Klebsiella pneumoniae", "experiment": "Antibacterial activity against Klebsiella pneumoniae ATCC 10031 assessed as reduction in microbial growth", "format": "functional"}, "Escherichia coli [4]": {"tested_on": "Escherichia coli", "experiment": "Antibacterial activity against Escherichia coli ATCC 8730 assessed as bacterial growth inhibition", "format": "functional"}, "Klebsiella aerogenes": {"tested_on": "Klebsiella aerogenes", "experiment": "Antibacterial activity against Enterobacter aerogenes ATCC 13048 assessed as reduction in bacterial growth", "format": "functional"}, "Citrobacter amalonaticus": {"tested_on": "Citrobacter amalonaticus", "experiment": "Antibacterial activity against Citrobacter amalonaticus assessed as reduction in microbial growth", "format": "functional"}, "Escherichia coli [5]": {"tested_on": "Escherichia coli", "experiment": "Antimicrobial activity against Escherichia coli ATCC 8739 assessed as reduction in bacterial growth", "format": "functional"}, "Escherichia coli [6]": {"tested_on": "Escherichia coli", "experiment": "Antimicrobial activity against Escherichia coli ATCC 25922 assessed as bacterial growth inhibition", "format": "functional"}},
  "note": "pIC50, pKi: −log10 of the molar value.",
  "data": [
    {"molecule": "Nc1cccc(-c2nc(N)nc(NC3Cc4ccccc4C3)n2)c1", "values": [
      {"measurement": "pKi", "setting": "[1]", "result": 5.40}
    ]},
    {"molecule": "O=C(Nc1cccc(-c2nc3ccccc3[nH]2)c1)c1ccccc1", "values": [
      {"measurement": "pIC50", "setting": "[2]", "result": 4.59}
    ]},
    {"molecule": "COc1ccc(C(=O)Nc2cccc(-c3nc4ccccc4[nH]3)c2)cc1", "values": [
      {"measurement": "pIC50", "setting": "[2]", "result": 4.14}
    ]},
    {"molecule": "Nc1nc(NC2Cc3ccccc3C2)nc(N2CCC(C(=O)NCCc3c[nH]c4ccccc34)CC2)n1", "values": [
      {"measurement": "pKi", "setting": "[1]", "result": 5.70}
    ]},
    {"molecule": "Cc1ccc(Sc2cc(C)c(C#N)c(Sc3ccc(C)cc3)n2)cc1", "values": [
      {"measurement": "pIC50", "setting": "[3]", "result": 3.74}
    ]},
    {"molecule": "O=C1c2ccccc2C(=O)N1CN(CCCn1ccnc1)CN1C(=O)c2ccccc2C1=O", "values": [
      {"measurement": "pIC50", "setting": "[3]", "result": 3.52}
    ]},
    {"molecule": "O=C(c1c[nH]c(=O)[nH]1)N1CCN(c2ccc(C(F)(F)F)cn2)CC1", "values": [
      {"measurement": "pIC50", "setting": "[3]", "result": 4.00}
    ]},
    {"molecule": "O=C(c1cnc(Nc2ncccn2)s1)N1CCN(c2ccc(C(F)(F)F)cn2)CC1", "values": [
      {"measurement": "pIC50", "setting": "[3]", "result": 3.96}
    ]},
    {"molecule": "C(=N\\Nc1ncnc2c1nnn2Cc1ccccc1)/c1ccccc1", "values": [
      {"measurement": "pIC50", "setting": "[3]", "result": 3.60}
    ]},
    {"molecule": "Cc1ccc(Nc2ncc(C(=O)N3CCN(c4ccc(C(F)(F)F)cn4)CC3)s2)nc1", "values": [
      {"measurement": "pIC50", "setting": "[3]", "result": 3.94}
    ]},
    {"molecule": "NCC[C@H](O)C(=O)N[C@@H]1C[C@H](N)[C@@H](O[C@H]2O[C@H](CN)[C@@H](O)[C@H](O)[C@H]2O)[C@H](O)[C@H]1O[C@H]1O[C@H](CO)[C@@H](O)[C@H](N)[C@H]1O", "note": "[AMIKACIN]", "values": [
      {"measurement": "MIC", "setting": "Acinetobacter baumannii", "result": "> 256", "unit": "µg/mL"},
      {"measurement": "MIC", "setting": "Enterobacter cloacae", "result": "> 512", "unit": "µg/mL"},
      {"measurement": "MIC", "setting": "Klebsiella pneumoniae", "result": "> 512", "unit": "µg/mL"},
      {"measurement": "MIC", "setting": "Escherichia coli [4]", "result": "> 512", "unit": "µg/mL"},
      {"measurement": "MIC", "setting": "Klebsiella aerogenes", "result": "> 512", "unit": "µg/mL"},
      {"measurement": "MIC", "setting": "Citrobacter amalonaticus", "result": "> 512", "unit": "µg/mL"}
    ]},
    {"molecule": "NC[C@@H]1O[C@H](O[C@H]2[C@@H](O)[C@H](O[C@@H]3[C@@H](O)[C@H](N)C[C@H](N)[C@H]3O[C@H]3O[C@H](CN)[C@@H](O)[C@H](O)[C@H]3N)O[C@@H]2CO)[C@H](N)[C@@H](O)[C@@H]1O", "note": "[FRAMYCETIN]", "values": [
      {"measurement": "MIC", "setting": "Escherichia coli [5]", "result": "> 256", "unit": "µg/mL"}
    ]},
    {"molecule": "NC[C@H]1O[C@H](O[C@H]2[C@H](O)[C@@H](O[C@H]3O[C@H](CO)[C@@H](O)[C@H](N)[C@H]3O)[C@H](N)C[C@@H]2N)[C@H](O)[C@@H](O)[C@@H]1O", "note": "[KANAMYCIN]", "values": [
      {"measurement": "MIC", "setting": "Escherichia coli [6]", "result": "> 256", "unit": "µg/mL"}
    ]},
    {"molecule": "OC[C@H]1O[C@@H](n2cnc3c(NC4CCCC4)ncnc32)[C@H](O)[C@@H]1O", "note": "[N6-CYCLOPENTYLADENOSINE]", "values": [
      {"measurement": "pIC50", "setting": "[3]", "result": 4.10}
    ]},
    {"molecule": "NC[C@H]1O[C@H](O[C@H]2[C@H](O)[C@@H](O[C@H]3O[C@H](CO)[C@@H](O)[C@H](N)[C@H]3O)[C@H](N)C[C@@H]2N)[C@H](N)C[C@@H]1O", "note": "[TOBRAMYCIN]", "values": [
      {"measurement": "MIC", "setting": "Enterobacter cloacae", "result": "> 512", "unit": "µg/mL"},
      {"measurement": "MIC", "setting": "Klebsiella pneumoniae", "result": "> 512", "unit": "µg/mL"},
      {"measurement": "MIC", "setting": "Escherichia coli [4]", "result": "> 512", "unit": "µg/mL"},
      {"measurement": "MIC", "setting": "Klebsiella aerogenes", "result": "> 512", "unit": "µg/mL"},
      {"measurement": "MIC", "setting": "Citrobacter amalonaticus", "result": "> 512", "unit": "µg/mL"}
    ]},
    {"molecule": "GENTAMICIN", "values": [
      {"measurement": "MIC", "setting": "Enterobacter cloacae", "result": "> 512", "unit": "µg/mL"},
      {"measurement": "MIC", "setting": "Klebsiella pneumoniae", "result": "> 512", "unit": "µg/mL"},
      {"measurement": "MIC", "setting": "Escherichia coli [6]", "result": "> 256", "unit": "µg/mL"},
      {"measurement": "MIC", "setting": "Escherichia coli [4]", "result": "> 512", "unit": "µg/mL"},
      {"measurement": "MIC", "setting": "Klebsiella aerogenes", "result": "> 512", "unit": "µg/mL"},
      {"measurement": "MIC", "setting": "Citrobacter amalonaticus", "result": "> 512", "unit": "µg/mL"}
    ]}
  ]
}
